Laboratory results from paper PMC11350758, “Development of Xanthoangelol-Derived Compounds with Membrane-Disrupting Effects against Gram-Positive Bacteria” (Antibiotics, 2024).
In brackets after ≈: the same amount, converted by molar mass.

How the values were obtained:
[1] = system: Staphylococcus epidermidis ATCC12228, erythromycin-susceptible strain; test: MIC, broth microdilution; format: cell-based; conditions: Staphylococcus epidermidis ATCC12228; for MIC: read-out: MIC S. e. 12228
Protocol: (§1) All target derivatives were assessed for their in vitro antibacterial activities using a broth microdilution assay to test their minimum inhibitory concentrations (MICs) against six Gram-positive strains (S. aureus ATCC31007, S. aureus ATCC25923, S. aureus ATCC43300, E. faecalis ATCC29212, B. subtilis ATCC9372, and S. epidermidis ATCC12228) and four Gram-negative strains (A. baumannii ATCC19606, K. pneumonia ATCC10031, E. coli ATCC25922, and P. aeruginosa ATCC27853). These compounds were also evaluated for their hemolytic activities and membrane selectivity by determining their HC50 (the concentration required to lyse 50% of red blood cells) and SI (HC50/MICs) values, respectively, and vancomycin was used as the positive drug.
(§2) MICs of the derivatives were determined by the micro broth dilution method according to the American Clinical and Laboratory Standards Institute (CLSI) standards. Briefly, 2-fold serial dilutions of target compounds were prepared in 96-well plates containing TSB broth. An equal volume of bacterial suspension (10^6 CFU/mL) was then pipetted into each well, and the mixture was incubated at 37 °C for 24 h. […] All biological experiments were repeated three times.

[2] = system: Escherichia coli ATCC25922, penicillin-susceptible strain; test: MIC, broth microdilution; format: cell-based; conditions: Escherichia coli ATCC25922; for MIC: read-out: MIC E. c. 25922
Protocol: as §1, §2

[3] = system: Bacillus subtilis ATCC9372, penicillin-susceptible strain; test: MIC, broth microdilution; format: cell-based; conditions: Bacillus subtilis ATCC9372; for MIC: read-out: MIC B. s. 9372
Protocol: as §1, §2

[4] = system: Klebsiella pneumonia ATCC10031; test: MIC, broth microdilution; format: cell-based; conditions: Klebsiella pneumonia ATCC10031; for MIC: Klebsiella pneumoniae, read-out: MIC K. p. 10031
Protocol: as §1, §2

[5] = system: Acinetobacter baumannii ATCC19606; test: MIC, broth microdilution; format: cell-based; conditions: Acinetobacter baumannii ATCC19606; for MIC: read-out: MIC A. b. 19606
Protocol: as §1, §2

[6] = system: Enterococcus faecalis ATCC29212, vancomycin-susceptible strain; test: MIC, broth microdilution; format: cell-based; conditions: Enterococcus faecalis ATCC29212; for MIC: read-out: MIC E. f. 29212
Protocol: as §1, §2

[7] = system: Pseudomonas aeruginosa ATCC27853, penicillin-susceptible strain; test: MIC, broth microdilution; format: cell-based; conditions: Pseudomonas aeruginosa ATCC27853; for MIC: read-out: MIC P. a. 27853
Protocol: as §1, §2

[8] = system: Staphylococcus aureus ATCC25923, erythromycin-susceptible strain; test: MIC, broth microdilution; format: cell-based; conditions: Staphylococcus aureus ATCC25923; for MIC: read-out: MIC S. a. 25923
Protocol: as §1, §2

[9] = system: Staphylococcus aureus ATCC31007, penicillin-resistant strain; test: MIC, broth microdilution; format: cell-based; conditions: Staphylococcus aureus ATCC31007; for MIC: read-out: MIC S. a. 31007
Protocol: as §1, §2

[10] = system: Enterococcus faecium ATCC51559, vancomycin-resistant strain; test: MIC, broth microdilution; format: cell-based; conditions: Enterococcus faecium ATCC51559, vancomycin-resistant; for MIC: read-out: MIC E. f. 51559
Protocol: as §2

[11] = system: Enterococcus faecalis ATCC51299, vancomycin-resistant strain; test: MIC, broth microdilution; format: cell-based; conditions: Enterococcus faecalis ATCC51299, vancomycin-resistant; for MIC: read-out: MIC E. f. 51299
Protocol: as §2

[12] = system: Staphylococcus aureus ATCC43300, methicillin-resistant strain; test: microbe, parasite or virus in culture; format: cell-based; conditions: Staphylococcus aureus ATCC43300 (MRSA); for MIC: ATCC 43300 / MRSA, read-out: MIC S. a 43300
Protocol: as §1, §2

red blood cells = test: Hemolysis assay; format: cell-based, Sheep; conditions: concentration required to lyse 50% of red blood cells; 37 °C, 1 h
Protocol: as §1
To further detect the hemolytic toxicity and therapeutic potential of these derivatives, we proceeded to examine the hemolytic activities and membrane selectivity of these derivatives. The HC50 value was defined as the concentration needed for a compound to lyse 50% of red blood cells, and it is often used to evaluate the hemolytic toxicity to eukaryotic cells. […] The selectivity index (SI) was calculated by HC50/MICs of S. aureus ATCC43300 and was used to assess the potency and safety of the compounds. […] Thus, compound 9h was selected as a representative molecule for the in-depth in vitro and in vivo studies.
Sheep blood was used to isolate red blood cells (RBCs), which were then resuspended in 1× PBS (5%). The compounds were dissolved in PBS to give an initial concentration of 5.12 mg/mL, compound solution (100 μL) was added to the first well of a 96-well plate, two-fold serial dilutions of compounds were prepared in 96-well plates, and then 150 μL of 5% RBC suspension was added to each well. This was followed by incubation at 37 °C for 1 h. After incubation, the plate was centrifuged (3500 rpm, 5 min), and 100 μL of supernatant solution from each well was carefully pipetted into a new plate. The absorbance values were measured at 540 nm. Erythrocyte hemolysis rate = (Absorbancecompound – Absorbance negative control)/(Absorbance1% Triton X-100 − Absorbance negative control) × 100%. All biological experiments were repeated three times.

Compound: colistin [Cos, reference compound]
- MIC S. e. 12228 [1]: 64 µg/mL
- MIC E. c. 25922 [2]: 0.5 µg/mL
- MIC B. s. 9372 [3]: 16 µg/mL
- MIC K. p. 10031 [4]: 1 µg/mL
- MIC A. b. 19606 [5]: 1 µg/mL
- MIC E. f. 29212 [6]: 128 µg/mL
- MIC P. a. 27853 [7]: 0.5 µg/mL
- MIC S. a. 25923 [8]: 128 µg/mL
- MIC S. a. 31007 [9]: 128 µg/mL
- MIC E. f. 51559 [10]: >128 µg/mL
- MIC E. f. 51299 [11]: >128 µg/mL
- MIC S. a 43300 [12]: 128 µg/mL

Compound: CC(=O)c1c(OCCC[n+]2ccccc2)c2c(c3c1OC(C)(CCC=C(C)C)C=C3)OC(C)(CCC=C(C)C)C=C2 (stereo not shown) [Compound 9b, 1-(3-((6-Acetyl-2,8-dimethyl-2,8-bis(4-methylpent-3-en-1-yl)-2H,8H-pyrano[2,3-f]chromen-5-yl)oxy)propyl)pyridin-1-ium]
- HC50 (red blood cells): 26.6 µg/mL
- MIC [1]: 32 µg/mL
- MIC [2]: 128 µg/mL
- MIC [3]: 2 µg/mL
- MIC [4]: 32 µg/mL
- MIC [5]: 32 µg/mL
- MIC [6]: 2 µg/mL
- MIC [7]: > 128 µg/mL
- MIC [8]: 2 µg/mL
- MIC [9]: 4 µg/mL
- MIC [10]: 4 µg/mL
- MIC [11]: 4 µg/mL
- MIC [12]: 1 µg/mL

Compound: CCN(CC)CCCNCCCOc1c2c(c3c(c1C(C)=O)OC(C)(CCC=C(C)C)C=C3)OC(C)(CCC=C(C)C)C=C2 (stereo not shown) [Compound 9g, 1-(5-(3-((3-(Diethylamino)propyl)amino)propoxy)-2,8-dimethyl-2,8-bis(4-methylpent-3-en-1-yl)-2H,8H-pyrano[2,3-f]chromen-6-yl)ethan-1-one]
- HC50 (red blood cells): 34.9 µg/mL
- MIC [1]: 1 µg/mL (≈ 1.65 µM)
- MIC [2]: 4 µg/mL (≈ 6.59 µM)
- MIC [3]: 2 µg/mL (≈ 3.3 µM)
- MIC [4]: 8 µg/mL (≈ 13.2 µM)
- MIC [5]: 4 µg/mL (≈ 6.59 µM)
- MIC [6]: 1 µg/mL (≈ 1.65 µM)
- MIC [7]: 32 µg/mL (≈ 52.7 µM)
- MIC [8]: 2 µg/mL (≈ 3.3 µM)
- MIC [9]: 4 µg/mL (≈ 6.59 µM)
- MIC [10]: 32 µg/mL (≈ 52.7 µM)
- MIC [11]: 32 µg/mL (≈ 52.7 µM)
- MIC [12]: 4 µg/mL (≈ 6.59 µM)

Compound: CCNCCCOc1c(C(C)=O)ccc2c1C=CC(C)(CCC=C(C)C)O2 (stereo not shown) [Compound 5b, 1-(5-(3-(Ethylamino)propoxy)-2-methyl-2-(4-methylpent-3-en-1-yl)-2H-chromen-6-yl)ethan-1-one]
- HC50 (red blood cells): 118.4 µg/mL
- MIC [1]: 8 µg/mL (≈ 21.5 µM)
- MIC [2]: 32 µg/mL (≈ 86.1 µM)
- MIC [3]: 8 µg/mL (≈ 21.5 µM)
- MIC [4]: 16 µg/mL (≈ 43.1 µM)
- MIC [5]: 16 µg/mL (≈ 43.1 µM)
- MIC [6]: 8 µg/mL (≈ 21.5 µM)
- MIC [7]: > 128 µg/mL
- MIC [8]: 16 µg/mL (≈ 43.1 µM)
- MIC [9]: 16 µg/mL (≈ 43.1 µM)
- MIC [10]: 32 µg/mL (≈ 86.1 µM)
- MIC [11]: 32 µg/mL (≈ 86.1 µM)
- MIC [12]: 16 µg/mL (≈ 43.1 µM)

Compound: CNCCN(C)CCCOc1c2c(c3c(c1C(C)=O)OC(C)(CCC=C(C)C)C=C3)OC(C)(CCC=C(C)C)C=C2 (stereo not shown) [Compound 9f, 1-(2,8-Dimethyl-5-(3-(methyl(2-(methylamino)ethyl)amino)propoxy)-2,8-bis(4-methylpent-3-en-1-yl)-2H,8H-pyrano[2,3-f]chromen-6-yl)ethan-1-one]
- HC50 (red blood cells): 40.3 µg/mL
- MIC [1]: 8 µg/mL (≈ 14.2 µM)
- MIC [2]: 128 µg/mL (≈ 227 µM)
- MIC [3]: 8 µg/mL (≈ 14.2 µM)
- MIC [4]: 16 µg/mL (≈ 28.3 µM)
- MIC [5]: 64 µg/mL (≈ 113 µM)
- MIC [6]: 8 µg/mL (≈ 14.2 µM)
- MIC [7]: > 128 µg/mL
- MIC [8]: 4 µg/mL (≈ 7.08 µM)
- MIC [9]: 4 µg/mL (≈ 7.08 µM)
- MIC [10]: 8 µg/mL (≈ 14.2 µM)
- MIC [11]: 4 µg/mL (≈ 7.08 µM)
- MIC [12]: 4 µg/mL (≈ 7.08 µM)
